Test results from patent publication US20260207623A1, “USE OF ESTETROL IN HEPATICALLY IMPAIRED PATIENTS” (ESTETRA SRL, priority 2022, published 2026).
Entries after “also recorded” stand apart in the source; their conditions may differ. Where two headings read alike, the source gives them in different places.

What was measured:
[1] = mass balance study in humans; cited from earlier work
[2] = cited from earlier work
[3] = system: fasting glucose; assay: Example 3: fasting glucose, change from baseline to week 12; assay type: in vivo, human
[4] = system: Haemoglobin A1C; assay: Example 3: haemoglobin A1C, change from baseline to week 12; assay type: in vivo, human
[5] = system: post-menopausal women; assay: Example 2 dose-finding study: Hot Flush Weekly Weighted Score; assay type: in vivo, human
Protocol: Further, the terms “Hot Flush Weekly Weighted Score”, as used herein, corresponds to a score taking into account frequency and severity which is calculated by using the severity score (as calculated above): [(1×No. of mild VMS)+(2×No. of moderate VMS)+(3×No. of severe VMS)] during a 7 day period.
All treatments (Estetrol, hereinafter E4 as monohydrate, [2.5 mg, 5 mg, 10 mg, 15 mg] capsule) were administered once daily (QD) per os for at least 12 consecutive weeks until the last biological assessments (Day 91 maximum) had been performed.
A further analysis of the results was thus prepared, where data from these two doses were grouped with the placebo dose and compared to the 10 mg and 15 mg estetrol monohydrate doses.

[6] = system: post-menopausal women; assay: Example 2: number of patients with endometrial biopsies; assay type: in vivo, human
Protocol: If during the course of the trial, a double layer endometrial thickness≥15 mm was detected on TVUS and/or abnormal uterine bleeding (in the judgement of the gynecologist in light of the estrogen therapy) was reported by a non-hysterectomied person, they underwent an endometrial biopsy and was treated with progestin (10 mg dydrogesterone) QD until end of Week 11 in a sequential way (i.e., a 14 day progestin treatment period followed by a 14 day progestin treatment pause) in addition to the E4/placebo treatment. […] If an abnormal uterine bleeding occurred again after a first normal endometrial biopsy, a thorough gynaecological examination and a TVUS were performed. If necessary in the judgment of the gynecologist, a second endometrial biopsy was performed.
1. Number of Patients with Biopsies

[7] = 15 mg and 20 mg, after 12 weeks, monohydrate

## C[C@]12CC[C@@H]3c4ccc(O)cc4CC[C@H]3[C@@H]1[C@@H](O)[C@@H](O)[C@@H]2O [E4, 1,3,5 (10)-estratrien-3,15alpha, 16alpha, 17beta-tetrol]
[1]
  contribution of hepatic elimination to the overall elimination: approximately 20%
[2]; given as a single dose
  dose up to which well tolerated and safe: up to 100 mg
[2]; given once daily for 28 days
  dose up to which well tolerated and safe: up to 40 mg

## C[C@]12CC[C@@H]3c4ccc(O)cc4CC[C@H]3[C@@H]1[C@@H](O)[C@@H](O)[C@@H]2O [E4 monohydrate, estetrol monohydrate]
[3]; [7]
  fasting glucose levels: decreased; also recorded: reduced
[3]; 15 mg, Baseline
  Fasting Glucose, mean: 5.156
[3]; 15 mg, Week 12
  Fasting Glucose, mean: 5.057
[3]; 20 mg, Baseline
  Fasting Glucose, mean: 5.177
[3]; 20 mg, Week 12
  Fasting Glucose, mean: 5.057
[4]; [7]
  haemoglobin A1C levels: decreased; also recorded: reduced
[4]; 15 mg, Baseline
  Haemoglobin A1C, mean: 5.625
[4]; 15 mg, Week 12
  Haemoglobin A1C, mean: 5.504
[4]; 20 mg, Baseline
  Haemoglobin A1C, mean: 5.605
[4]; 20 mg, Week 12
  Haemoglobin A1C, mean: 5.458
[5]; 2.5 mg daily, week 0
  Hot Flush Weekly Weighted Score, relative change (% from baseline), Mean: 0%
[5]; 2.5 mg daily, week 1
  Hot Flush Weekly Weighted Score, relative change (% from baseline), Mean: −22%
[5]; 2.5 mg daily, week 2
  Hot Flush Weekly Weighted Score, relative change (% from baseline), Mean: −32%
[5]; 2.5 mg daily, week 3
  Hot Flush Weekly Weighted Score, relative change (% from baseline), Mean: −43%
[5]; 2.5 mg daily, week 4
  Hot Flush Weekly Weighted Score, relative change (% from baseline), Mean: −47%
[5]; 2.5 mg daily, week 5
  Hot Flush Weekly Weighted Score, relative change (% from baseline), Mean: −48%
[5]; 2.5 mg daily, week 6
  Hot Flush Weekly Weighted Score, relative change (% from baseline), Mean: −51%
[5]; 2.5 mg daily, week 7
  Hot Flush Weekly Weighted Score, relative change (% from baseline), Mean: −53%
[5]; 2.5 mg daily, week 8
  Hot Flush Weekly Weighted Score, relative change (% from baseline), Mean: −55%
[5]; 2.5 mg daily, week 9
  Hot Flush Weekly Weighted Score, relative change (% from baseline), Mean: −57%
[5]; 2.5 mg daily, week 10
  Hot Flush Weekly Weighted Score, relative change (% from baseline), Mean: −57%
[5]; 2.5 mg daily, week 11
  Hot Flush Weekly Weighted Score, relative change (% from baseline), Mean: −56%
[5]; 2.5 mg daily, week 12
  Hot Flush Weekly Weighted Score, relative change (% from baseline), Mean: −57%
[5]; 5 mg daily, week 0
  Hot Flush Weekly Weighted Score, relative change (% from baseline), Mean: 0%
[5]; 5 mg daily, week 1
  Hot Flush Weekly Weighted Score, relative change (% from baseline), Mean: −22%
[5]; 5 mg daily, week 2
  Hot Flush Weekly Weighted Score, relative change (% from baseline), Mean: −32%
[5]; 5 mg daily, week 3
  Hot Flush Weekly Weighted Score, relative change (% from baseline), Mean: −37%
[5]; 5 mg daily, week 4
  Hot Flush Weekly Weighted Score, relative change (% from baseline), Mean: −43%
[5]; 5 mg daily, week 5
  Hot Flush Weekly Weighted Score, relative change (% from baseline), Mean: −46%
[5]; 5 mg daily, week 6
  Hot Flush Weekly Weighted Score, relative change (% from baseline), Mean: −56%
[5]; 5 mg daily, week 7
  Hot Flush Weekly Weighted Score, relative change (% from baseline), Mean: −56%
[5]; 5 mg daily, week 8
  Hot Flush Weekly Weighted Score, relative change (% from baseline), Mean: −56%
[5]; 5 mg daily, week 9
  Hot Flush Weekly Weighted Score, relative change (% from baseline), Mean: −58%
[5]; 5 mg daily, week 10
  Hot Flush Weekly Weighted Score, relative change (% from baseline), Mean: −59%
[5]; 5 mg daily, week 11
  Hot Flush Weekly Weighted Score, relative change (% from baseline), Mean: −61%
[5]; 5 mg daily, week 12
  Hot Flush Weekly Weighted Score, relative change (% from baseline), Mean: −60%
[5]; 10 mg daily, week 0
  Hot Flush Weekly Weighted Score, relative change (% from baseline), Mean: 0%
[5]; 10 mg daily, week 0, section B analysis
  Hot Flush Weekly Weighted Score, relative change (% from baseline), Mean: 0%
[5]; 10 mg daily, week 1
  Hot Flush Weekly Weighted Score, relative change (% from baseline), Mean: −20%
[5]; 10 mg daily, week 1, section B analysis
  Hot Flush Weekly Weighted Score, relative change (% from baseline), Mean: −20%
[5]; 10 mg daily, week 2
  Hot Flush Weekly Weighted Score, relative change (% from baseline), Mean: −35%
[5]; 10 mg daily, week 3
  Hot Flush Weekly Weighted Score, relative change (% from baseline), Mean: −47%
[5]; 10 mg daily, week 4
  Hot Flush Weekly Weighted Score, relative change (% from baseline), Mean: −54%
[5]; 10 mg daily, week 5
  Hot Flush Weekly Weighted Score, relative change (% from baseline), Mean: −58%
[5]; 10 mg daily, week 7
  Hot Flush Weekly Weighted Score, relative change (% from baseline), Mean: −64%
[5]; 10 mg daily, week 7, section B analysis
  Hot Flush Weekly Weighted Score, relative change (% from baseline), Mean: −64%
[5]; 10 mg daily, week 8, section B analysis
  Hot Flush Weekly Weighted Score, relative change (% from baseline), Mean: −66%
[5]; 10 mg daily, week 9
  Hot Flush Weekly Weighted Score, relative change (% from baseline), Mean: −67%
[5]; 10 mg daily, week 9, section B analysis
  Hot Flush Weekly Weighted Score, relative change (% from baseline), Mean: −66%
[5]; 10 mg daily, week 10, section B analysis
  Hot Flush Weekly Weighted Score, relative change (% from baseline), Mean: −68%
[5]; 10 mg daily, week 11
  Hot Flush Weekly Weighted Score, relative change (% from baseline), Mean: −69%
[5]; 10 mg daily, week 11, section B analysis
  Hot Flush Weekly Weighted Score, relative change (% from baseline), Mean: −68%
[5]; 10 mg daily, week 12
  Hot Flush Weekly Weighted Score, relative change (% from baseline), Mean: −70%
[5]; 10 mg daily, week 12, section B analysis
  Hot Flush Weekly Weighted Score, relative change (% from baseline), Mean: −69%
[5]; 15 mg daily, week 0
  Hot Flush Weekly Weighted Score, relative change (% from baseline), Mean: 0%
[5]; 15 mg daily, week 0, section B analysis
  Hot Flush Weekly Weighted Score, relative change (% from baseline), Mean: 0%
[5]; 15 mg daily, week 1
  Hot Flush Weekly Weighted Score, relative change (% from baseline), Mean: −19%
[5]; 15 mg daily, week 1, section B analysis
  Hot Flush Weekly Weighted Score, relative change (% from baseline), Mean: −22%
[5]; 15 mg daily, week 2
  Hot Flush Weekly Weighted Score, relative change (% from baseline), Mean: −43%
[5]; 15 mg daily, week 3, section B analysis
  Hot Flush Weekly Weighted Score, relative change (% from baseline), Mean: −56%
[5]; 15 mg daily, week 4, section B analysis
  Hot Flush Weekly Weighted Score, relative change (% from baseline), Mean: −66%
[5]; 15 mg daily, week 5, section B analysis
  Hot Flush Weekly Weighted Score, relative change (% from baseline), Mean: −70%
[5]; 15 mg daily, week 6
  Hot Flush Weekly Weighted Score, relative change (% from baseline), Mean: −74%
[5]; 15 mg daily, week 6, section B analysis
  Hot Flush Weekly Weighted Score, relative change (% from baseline), Mean: −72%
[5]; 15 mg daily, week 8
  Hot Flush Weekly Weighted Score, relative change (% from baseline), Mean: −78%
[5]; 15 mg daily, week 8, section B analysis
  Hot Flush Weekly Weighted Score, relative change (% from baseline), Mean: −76%
[5]; 15 mg daily, week 9
  Hot Flush Weekly Weighted Score, relative change (% from baseline), Mean: −80%
[5]; 15 mg daily, week 9, section B analysis
  Hot Flush Weekly Weighted Score, relative change (% from baseline), Mean: −78%
[5]; 15 mg daily, week 10
  Hot Flush Weekly Weighted Score, relative change (% from baseline), Mean: −79%
[5]; 15 mg daily, week 11
  Hot Flush Weekly Weighted Score, relative change (% from baseline), Mean: −80%
[5]; 15 mg daily, week 11, section B analysis
  Hot Flush Weekly Weighted Score, relative change (% from baseline), Mean: −79%
[5]; 15 mg daily, week 12
  Hot Flush Weekly Weighted Score, relative change (% from baseline), Mean: −82%
[5]; 15 mg daily, week 12, section B analysis
  Hot Flush Weekly Weighted Score, relative change (% from baseline), Mean: −81%
[6]; 2.5 mg daily
  Number of patients with biopsies: 4
[6]; 5 mg daily
  Number of patients with biopsies: 5
[6]; 10 mg daily
  Number of patients with biopsies: 11
[6]; 15 mg daily
  Number of patients with biopsies: 9
[6]; 15 mg per day group compared with 10 mg per day group
  requirements for biopsies: less requirements for biopsies
